Assay results published in patent US10376520B2, “Methods for the treatment of cardiovascular disorders” (Galapagos NV, priority 2015, dated 2019).

Experiments:
[1] = tested on: Subjects With Active Crohn's Disease; assay: Atherogenic index, Study 5 (Crohn's disease); assay type: in vivo, human; conditions: for Atherogenic index Mean CFB - 10 weeks results / Atherogenic index Mean percentage CFB - 10 weeks results / Atherogenic index Median CFB - 10 weeks results: 200 mg q.d.
Excerpt: As used herein, the term ‘atherogenic index’ refers to
This is a double-blind, randomized, placebo-controlled, multi-centre Phase 2 study to investigate the efficacy and safety of Compound 1 administered once daily for the treatment of active CD with evidence of mucosal ulceration. The pharmacokinetics (including a PK substudy) and pharmacodynamics of Compound 1 and metabolite in CD will also be characterised.
A total of 180 eligible subjects will be randomized to receive Compound 1 or placebo in addition to their stable background treatment (eg, corticosteroids, aminosalicylates, or CD-related antibiotics). The study will consist of 2 parts, with total treatment duration of 20 weeks. Randomization in Part 1 will be stratified according the subject's previous anti-TNF exposure/response, CRP level at Screening, and oral corticosteroid use at visit Day −1.
After the first 10 weeks of treatment in Part 1, patients will be re-randomized for Part 2 as shown in the diagram below and will be stratified according to the subject's clinical response, previous anti-TNF exposure/response, and oral corticosteroid use at visit Day −1.
The atherogenic index has been identified to be a good predictor of cardiovascular disorders risks and is calculated as follows: […]

RA patients = assay: CRP analysis (immunoturbidimetric assay), Study 1; assay type: in vivo, human
Method: Double-blind, placebo-controlled add on study in subjects with moderately to severely active RA who have an inadequate response to methotrexate (MTX) (oral or parenteral).
Compound 1 (dosed as a [Compound 1:HCl:3H2O]) is dosed for twelve weeks once daily (q.d.) (50 mg, 100 mg or 200 mg) or twice daily (b.i.d.) (25 mg, 50 mg or 100 mg); or placebo.
At Week 12, the subjects on placebo who have not achieved 20% improvement in swollen joint count (SJC66) and tender joint count (TJC68) are re-randomized automatically to receive Compound 1 (dosed as a [Compound 1:HCl:3H2O]) either at 100 mg q.d. or 50 mg b.i.d. doses in a blinded fashion; subjects on 50 mg q.d. who have not achieved 20% improvement in SJC66 and TJC68 will be assigned to 100 mg q.d. and subjects on 25 mg b.i.d. that have not achieved a 20% improvement in SJC66 and TJC68 will be assigned to 50 mg b.i.d. Subjects who switch treatment at week 12 are handled as if they discontinued at week 12 for the purpose of statistical analysis, whereas subjects in the other groups will maintain their randomized treatment until Week 24.
The determination of CRP is made using Immunoturbidimetric assay for the in vitro quantitative determination of CRP in human serum and plasma on Roche/Hitachi cobas c systems, wherein human CRP agglutinates with latex particles coated with monoclonal anti-CRP antibodies. The aggregates are determined turbidimetrically (Eda et al., 1998; Price et al., 1987).
Human serum and plasma samples [CRP] determination was done on a Roche/Hitachi Cobas c 301 c 501/502 system which automatically calculate the analyte concentration of each sample. Samples containing precipitates are centrifuged before performing the assay.
The Hommel-corrected p-value for the pairwise comparisons of each group with placebo is shown.
The number of subjects (N) provided in each groups corresponds to the number of patients starting the study in each group, and the ACR data reported below corresponds to the responding patients continuing for the entire 24 weeks on their initial treatment course.

[2] = 200 mg q.d. continued week 10 to 20, week 2
[3] = 200 mg q.d. continued week 10 to 20, week 4
[4] = 200 mg q.d. continued week 10 to 20, week 6
[5] = 200 mg q.d. continued week 10 to 20, week 10
[6] = 200 mg q.d. continued week 10 to 20, week 12
[7] = 200 mg q.d. continued week 10 to 20, week 16
[8] = 200 mg q.d. continued week 10 to 20, week 20
[9] = 200 mg q.d. week 0 to 10, to 100 mg q.d. week 10 to 20, week 2
[10] = 200 mg q.d. week 0 to 10, to 100 mg q.d. week 10 to 20, week 4
[11] = 200 mg q.d. week 0 to 10, to 100 mg q.d. week 10 to 20, week 6
[12] = 200 mg q.d. week 0 to 10, to 100 mg q.d. week 10 to 20, week 10
[13] = 200 mg q.d. week 0 to 10, to 100 mg q.d. week 10 to 20, week 12
[14] = 200 mg q.d. week 0 to 10, to 100 mg q.d. week 10 to 20, week 16
[15] = 200 mg q.d. week 0 to 10, to 100 mg q.d. week 10 to 20, week 20
[16] = 200 mg q.d. week 0 to 10, to placebo week 10 to 20, week 2
[17] = 200 mg q.d. week 0 to 10, to placebo week 10 to 20, week 4
[18] = 200 mg q.d. week 0 to 10, to placebo week 10 to 20, week 6
[19] = 200 mg q.d. week 0 to 10, to placebo week 10 to 20, week 10
[20] = 200 mg q.d. week 0 to 10, to placebo week 10 to 20, week 12
[21] = 200 mg q.d. week 0 to 10, to placebo week 10 to 20, week 16
[22] = 200 mg q.d. week 0 to 10, to placebo week 10 to 20, week 20
[23] = placebo week 0 to 10, to 100 mg q.d. week 10 to 20, week 12
[24] = placebo week 0 to 10, to 100 mg q.d. week 10 to 20, week 16
[25] = placebo week 0 to 10, to 100 mg q.d. week 10 to 20, week 20

O=C(Nc1nc2cccc(-c3ccc(CN4CCS(=O)(=O)CC4)cc3)n2n1)C1CC1 [Compound 1, cyclopropanecarboxylic acid {5-[4-(1,1-dioxo-thiomorpholin-4-ylmethyl)-phenyl]-[1,2,4]triazolo[1,5-a]pyridin-2yl}-amide]
Atherogenic index Mean percentage CFB - 20 weeks results [1, 2]: −6.93%
Atherogenic index Median CFB - 20 weeks results [1, 2]: -0.25 mmol/L
Atherogenic index Mean percentage CFB - 20 weeks results [1, 3]: −6.67%
Atherogenic index Median CFB - 20 weeks results [1, 3]: -0.21 mmol/L
Atherogenic index Mean percentage CFB - 20 weeks results [1, 4]: −8.51%
Atherogenic index Median CFB - 20 weeks results [1, 4]: -0.22 mmol/L
Atherogenic index Mean percentage CFB - 20 weeks results [1, 5]: −3.49%
Atherogenic index Median CFB - 20 weeks results [1, 5]: -0.13 mmol/L
Atherogenic index Mean percentage CFB - 20 weeks results [1, 6]: −1.27%
Atherogenic index Median CFB - 20 weeks results [1, 6]: -0.13 mmol/L
Atherogenic index Mean percentage CFB - 20 weeks results [1, 7]: −0.22%
Atherogenic index Median CFB - 20 weeks results [1, 7]: -0.06 mmol/L
Atherogenic index Mean percentage CFB - 20 weeks results [1, 8]: 3.38%
Atherogenic index Median CFB - 20 weeks results [1, 8]: 0.01 mmol/L
Atherogenic index Mean percentage CFB - 20 weeks results [1, 9]: −12.02%
Atherogenic index Median CFB - 20 weeks results [1, 9]: -0.37 mmol/L
Atherogenic index Mean percentage CFB - 20 weeks results [1, 10]: −12.95%
Atherogenic index Median CFB - 20 weeks results [1, 10]: -0.38 mmol/L
Atherogenic index Mean percentage CFB - 20 weeks results [1, 11]: −13.82%
Atherogenic index Median CFB - 20 weeks results [1, 11]: -0.48 mmol/L
Atherogenic index Mean percentage CFB - 20 weeks results [1, 12]: −11.54%
Atherogenic index Median CFB - 20 weeks results [1, 12]: -0.48 mmol/L
Atherogenic index Mean percentage CFB - 20 weeks results [1, 13]: −5.12%
Atherogenic index Median CFB - 20 weeks results [1, 13]: -0.25 mmol/L
Atherogenic index Mean percentage CFB - 20 weeks results [1, 14]: −4.54%
Atherogenic index Median CFB - 20 weeks results [1, 14]: -0.15 mmol/L
Atherogenic index Mean percentage CFB - 20 weeks results [1, 15]: −8.14%
Atherogenic index Median CFB - 20 weeks results [1, 15]: -0.39 mmol/L
Atherogenic index Mean percentage CFB - 20 weeks results [1, 16]: −7.38%
Atherogenic index Median CFB - 20 weeks results [1, 16]: -0.31 mmol/L
Atherogenic index Mean percentage CFB - 20 weeks results [1, 17]: −10.10%
Atherogenic index Median CFB - 20 weeks results [1, 17]: -0.29 mmol/L
Atherogenic index Mean percentage CFB - 20 weeks results [1, 18]: −2.55%
Atherogenic index Median CFB - 20 weeks results [1, 18]: -0.14 mmol/L
Atherogenic index Mean percentage CFB - 20 weeks results [1, 19]: −5.14%
Atherogenic index Median CFB - 20 weeks results [1, 19]: -0.19 mmol/L
Atherogenic index Mean percentage CFB - 20 weeks results [1, 20]: 9.34%
Atherogenic index Median CFB - 20 weeks results [1, 20]: 0.14 mmol/L
Atherogenic index Mean percentage CFB - 20 weeks results [1, 21]: 19.14%
Atherogenic index Median CFB - 20 weeks results [1, 21]: 0.35 mmol/L
Atherogenic index Mean percentage CFB - 20 weeks results [1, 22]: 19.82%
Atherogenic index Median CFB - 20 weeks results [1, 22]: 0.38 mmol/L
Atherogenic index Mean CFB - 10 weeks results ([1]; week 2): -0.31 mmol/L
Atherogenic index Mean percentage CFB - 10 weeks results ([1]; week 2): −8.20%
Atherogenic index Median CFB - 10 weeks results ([1]; week 2): -0.31 mmol/L
Atherogenic index Mean CFB - 10 weeks results ([1]; week 4): -0.33 mmol/L
Atherogenic index Mean percentage CFB - 10 weeks results ([1]; week 4): −8.79%
Atherogenic index Median CFB - 10 weeks results ([1]; week 4): -0.28 mmol/L
Atherogenic index Mean CFB - 10 weeks results ([1]; week 6): -0.32 mmol/L
Atherogenic index Mean percentage CFB - 10 weeks results ([1]; week 6): −8.69%
Atherogenic index Median CFB - 10 weeks results ([1]; week 6): -0.29 mmol/L
Atherogenic index Mean CFB - 10 weeks results ([1]; week 10): -0.25 mmol/L
Atherogenic index Mean percentage CFB - 10 weeks results ([1]; week 10): −5.98%
Atherogenic index Median CFB - 10 weeks results ([1]; week 10): -0.21 mmol/L
Atherogenic index Mean percentage CFB - 20 weeks results [1, 23]: 0.84%
Atherogenic index Median CFB - 20 weeks results [1, 23]: -0.10 mmol/L
Atherogenic index Mean percentage CFB - 20 weeks results [1, 24]: −0.97%
Atherogenic index Median CFB - 20 weeks results [1, 24]: -0.25 mmol/L
Atherogenic index Mean percentage CFB - 20 weeks results [1, 25]: 3.17%
Atherogenic index Median CFB - 20 weeks results [1, 25]: -0.10 mmol/L
CRP mean CFB (LOCF) - 24 weeks results (RA patients; 50 mg q.d., week 1): -7.95 mg/L
CRP mean CFB (LOCF) - 24 weeks results (RA patients; 50 mg q.d., week 2): -8.23 mg/L
CRP mean CFB (LOCF) - 24 weeks results (RA patients; 50 mg q.d., week 4): -10.18 mg/L
CRP mean CFB (LOCF) - CRP variation (RA patients; 50 mg q.d., week 8): -12.02 mg/L
CRP mean CFB (LOCF) - 24 weeks results (RA patients; 50 mg q.d., week 12): -13.15 mg/L
CRP mean CFB (LOCF) - 24 weeks results (RA patients; 100 mg q.d., week 1): -11.02 mg/L
CRP mean CFB (LOCF) - 24 weeks results (RA patients; 100 mg q.d., week 2): -12.94 mg/L
CRP mean CFB (LOCF) - 24 weeks results (RA patients; 100 mg q.d., week 4): -13.18 mg/L
CRP mean CFB (LOCF) - 24 weeks results (RA patients; 100 mg q.d., week 8): -12.48 mg/L
CRP mean CFB (LOCF) - 24 weeks results (RA patients; 100 mg q.d., week 12): -13.57 mg/L
CRP mean CFB (LOCF) - 24 weeks results (RA patients; 200 mg q.d., week 1): -17.06 mg/L
CRP mean CFB (LOCF) - 24 weeks results (RA patients; 200 mg q.d., week 2): -17.51 mg/L
CRP mean CFB (LOCF) - 24 weeks results (RA patients; 200 mg q.d., week 4): -17.94 mg/L
CRP mean CFB (LOCF) - 24 weeks results (RA patients; 200 mg q.d., week 8): -17.22 mg/L
CRP mean CFB (LOCF) - 24 weeks results (RA patients; 200 mg q.d., week 12): -17.24 mg/L
CRP mean CFB (LOCF) - 24 weeks results (RA patients; 2 × 25 mg b.i.d., Week 1): -8.47 mg/L
CRP mean CFB (LOCF) - 24 weeks results (RA patients; 2 × 25 mg b.i.d., Week 2): -10.06 mg/L
CRP mean CFB (LOCF) - 24 weeks results (RA patients; 2 × 25 mg b.i.d., Week 4): -7.72 mg/L
CRP mean CFB (LOCF) - 24 weeks results (RA patients; 2 × 25 mg b.i.d., Week 8): -10.94 mg/L
CRP mean CFB (LOCF) - 24 weeks results (RA patients; 2 × 25 mg b.i.d., Week 12): -10.26 mg/L
CRP mean CFB (LOCF) - 24 weeks results (RA patients; 2 × 25 mg b.i.d., Week 20): -12.20 mg/L
CRP mean CFB (LOCF) - 24 weeks results (RA patients; 2 × 50 mg b.i.d., Week 1): -10.08 mg/L
CRP mean CFB (LOCF) - 24 weeks results (RA patients; 2 × 50 mg b.i.d., Week 2): -11.03 mg/L
CRP mean CFB (LOCF) - 24 weeks results (RA patients; 2 × 50 mg b.i.d., Week 4): -13.28 mg/L
CRP mean CFB (LOCF) - 24 weeks results (RA patients; 2 × 50 mg b.i.d., Week 8): -13.25 mg/L
CRP mean CFB (LOCF) - 24 weeks results (RA patients; 2 × 50 mg b.i.d., Week 12): -12.97 mg/L
CRP mean CFB (LOCF) - 24 weeks results (RA patients; 2 × 100 mg b.i.d., Week 1): -17.39 mg/L
CRP mean CFB (LOCF) - 24 weeks results (RA patients; 2 × 100 mg b.i.d., Week 2): -19.69 mg/L
CRP mean CFB (LOCF) - 24 weeks results (RA patients; 2 × 100 mg b.i.d., Week 4): -20.64 mg/L
CRP mean CFB (LOCF) - 24 weeks results (RA patients; 2 × 100 mg b.i.d., Week 8): -21.32 mg/L
CRP mean CFB (LOCF) - 24 weeks results (RA patients; 2 × 100 mg b.i.d., Week 12): -20.54 mg/L
CRP mean CFB (LOCF) - 24 weeks results (RA patients; 2 × 100 mg b.i.d., Week 20): -20.80 mg/L
